Data set [1] in a line: Human liver microsomal stability assay (Test 1). The data set is classed as in vitro ADME. Conditions: human liver microsomes, 0.5 uM test compound, 37° C., up to 45 minutes, pH 7.4, NADPH generating system; read-out: Test 1 T½. As for the experimental part: (§1) (Test 1) Human liver microsomal stability assay was conducted by incubating 0.5 uM test compounds at 37° C. for up to 45 minutes in 50 mM of potassium phosphate buffer (pH 7.4) containing 0.5 mg of microsomal protein and 50 µL of NADPH generating system (7.8 mg of glucose 6-phosphate, 1.7 mg of NADPH and 6 U of glucose 6-phosphate dehydrogenase per mL in 2% w/v of sodium bicarbonate). At 0, 5, 15, 30 and 45 min., an aliquot was taken, quenched with internal standard containing stop solution. No co-factor controls at 45 minutes were also prepared. After incubation, the samples were analyzed by LC-MS/MS. Peak area ratios of analyte to internal standard were used to calculate the intrinsic clearance. The intrinsic clearance (CLint) was determined from the first order elimination constant by non-linear regression. Formation of the active drug Compound A over the time course was also monitored by LC-MS/MS analysis.
Background: Liver microsomes are a subcellular fraction often used to study metabolism.

Data set [2] can be described thus: Human plasma stability assay (Test 2). The data set is classed as in vitro ADME. Conditions: heparinated human plasma, 0.5 uM test compound, 37° C., up to 120 minutes; read-out: Test 2 T½. As for the experimental part: (Test 2) Human plasma stability assay was conducted by incubating 0.5 uM test compounds at 37° C. for up to 120 minutes in heparinated human plasma. At 0, 5, 15, 30, 60 and 120 […] min., an aliquot was taken, quenched with internal standard containing stop solution. After incubation, the samples were analyzed by LC-MS/MS. Peak area ratios of analyte to internal standard were used to calculate the half-life. Formation of the active drug Compound A over the time course was also monitored by LC-MS/MS analysis.

A short description of data set [3]: Human hepatocyte stability assay (Test 4). The class given is in vitro ADME. Conditions: cryopreserved human hepatocytes; human hepatocytes 0.5 million cells/mL, 0.5 uM test compound, 37° C., up to 240 minutes; read-out: Test 4 T½. The method, then:
(Test 4) Human hepatocyte stability assay was conducted by incubating 0.5 uM test compound at 37° C. for up to 240 minutes. Cryopreserved human hepatocytes were obtained from Celsis IVT ( Baltimore, Maryland). Cells were thawed according to vendor’s instructions and were suspended in William’s Medium E to 0.5 million cells/mL. Test compounds were spiked into the cell suspension to initiate the reactions. At 0, 10, 30, 60, 120 and 240 min., an aliquot was taken, quenched with internal standard containing stop solution. After incubation, the samples were analyzed by LC-MS/MS. Peak area ratios of analyte to internal standard were used to calculate the intrinsic clearance. The intrinsic clearance (CLint) was determined from the first order elimination constant by non-linear regression. Formation of the active drug Compound A over the time course was also monitored by LC-MS/MS analysis.

Data set [4] in a line: Human skin homogenate stability assay (Test 3). The data set is classed as in vitro ADME. Conditions: 0.5 uM test compound, 37° C., up to 45 minutes, pH 7.4, NADPH generating system, read-out: Test 3 T½. As for the experimental part:
as §1, with “3)” for “1)”, “skin homogenate” for “liver microsomal”, “conducted in a similar way as the human liver microsomal stability assay,” for “conducted”, “human skin homogenate” for “microsomal”

For data set [5] the following is noted: treprostinil as the free acid, cited from earlier work.

Bounds are passed on as bounds.

In the case of `CCCCC[C@H](O)CC[C@@H]1[C@H]2Cc3cccc(OCC(=O)NCC4CC4)c3C[C@H]2C[C@H]1O` [Compound 2, N-Cyclopropylmethyl-2-[2-hydroxy-1-(3-hydroxy-octyl)-2,3,3a,4,9,9a-hexahydro-1H-cyclopenta[b]naphthalen-5-yloxy]-acetamide], the figures for the half-life at 0.5 uM in data set [1], in data set [2] and in data set [3] were under 15 min, over 60 min and 31 to 60 min, respectively.

Regarding `CCCCC[C@H](O)CC[C@@H]1[C@H]2Cc3cccc(OCC(=O)NCCO)c3C[C@H]2C[C@H]1O` [Compound 7, N-(2-Hydroxy-ethyl)-2-[2-hydroxy-1-(3-hydroxy-octyl)-2,3,3a,4,9,9a-hexahydro-1H-cyclopenta[b]naphthalen-5-yloxy]-acetamide], the half-life at 0.5 uM is 15 to 30 min in data set [1], over 60 min in data set [2] and 15 to 30 min in data set [3].

Take `CCCCC[C@H](O)CC[C@@H]1[C@H]2Cc3cccc(OCC(=O)N(C)CC(=O)OC)c3C[C@H]2C[C@H]1O` [Compound 13, ({2-[2-Hydroxy-1-(3-hydroxy-octyl)-2,3,3a,4,9,9a-hexahydro-1H-cyclopenta[b]naphthalen-5-yloxy]-acetyl}-methyl-amino)-acetic acid methyl ester]: the half-life at 0.5 uM was under 15 min in data set [1], over 60 min in data set [2] and under 15 min in data set [3].

In the case of `CCCCC[C@H](O)CC[C@@H]1[C@H]2Cc3cccc(OCC(=O)NCC(F)(F)F)c3C[C@H]2C[C@H]1O` [Compound 14, 2-[2-Hydroxy-1-(3-hydroxy-octyl)-2,3,3a,4,9,9a-hexahydro-1H-cyclopenta[b]naphthalen-5-yloxy]-N-(2,2,2-trifluoro-ethyl)-acetamide], the half-life at 0.5 uM is under 15 min in data set [1], over 60 min in data set [2], over 60 min in data set [4] and under 15 min in data set [3].

On to `CCCCC[C@H](O)CC[C@@H]1[C@H]2Cc3cccc(OCC(=O)OC(C)C(C)(C)C)c3C[C@H]2C[C@H]1O` (stereo partly drawn) [Compound 18, [2-Hydroxy-1-(3-hydroxy-octyl)-2,3,3a,4,9,9a-hexahydro-1H-cyclopenta[b]naphthalen-5-yloxy]-acetic acid 1,2,2-trimethyl-propyl ester], for which the half-life at 0.5 uM in data set [1] is under 15 min; in data set [2], over 60 min; in data set [4], over 60 min.

With `CCCCC[C@H](O)CC[C@@H]1[C@H]2Cc3cccc(OCC(=O)OC4CC5CCC4C5)c3C[C@H]2C[C@H]1O` (stereo partly drawn) [Compound 19, [2-Hydroxy-1-(3-hydroxy-octyl)-2,3,3a,4,9,9a-hexahydro-1H-cyclopenta[b]naphthalen-5-yloxy]-acetic acid bicyclo[2.2.1]hept-2-yl ester], the results for the half-life at 0.5 uM in data set [1], in data set [2] and in data set [4] were under 15 min, 31 to 60 min and 15 to 30 min, respectively.

As for `CCCCC[C@H](O)CC[C@@H]1[C@H]2Cc3cccc(OCC(=O)OC(C)C)c3C[C@H]2C[C@H]1O` [Compound 20, [2-Hydroxy-1-(3-hydroxy-octyl)-2,3,3a,4,9,9a-hexahydro-1H-cyclopenta[b]naphthalen-5-yloxy]-acetic acid isopropyl ester], the half-life at 0.5 uM in data set [1] is under 15 min; in data set [2], 31 to 60 min; in data set [4], under 15 min.

On to `CCCCC[C@H](O)CC[C@@H]1[C@H]2Cc3cccc(OCC(=O)OC)c3C[C@H]2C[C@H]1OC(=O)CCCC` [Compound 22, Pentanoic acid 1-(3-hydroxy-octyl)-5-methoxycarbonylmethoxy-2,3,3a,4,9,9a-hexahydro-1H-cyclopenta[b]naphthalen-2-yl ester], for which the half-life at 0.5 uM was under 15 min in data set [1], over 60 min in data set [2] and over 60 min in data set [4].

Regarding `CCCCC[C@H](O)CC[C@@H]1[C@H]2Cc3cccc(OCC(=O)OC)c3C[C@H]2C[C@H]1OC(=O)OCC` [Compound 25, [2-Ethoxycarbonyloxy-1-(3-hydroxy-octyl)-2,3,3a,4,9,9a-hexahydro-1H-cyclopenta[b]naphthalen-5-yloxy]-acetic acid methyl ester], the half-life at 0.5 uM is under 15 min in data set [1], over 60 min in data set [2] and 31 to 60 min in data set [4].

For the compound `CCCCC[C@H](O)CC[C@@H]1[C@H]2Cc3cccc(OCC(=O)OC)c3C[C@H]2C[C@H]1OC(C)=O` [Compound 26, [2-Acetoxy-1-(3-hydroxy-octyl)-2,3,3a,4,9,9a-hexahydro-1H-cyclopenta[b]naphthalen-5-yloxy]-acetic acid methyl ester], the half-life at 0.5 uM in data set [1] is under 15 min; in data set [2], 15 to 30 min; in data set [4], 15 to 30 min.

Take `CCCCC[C@H](O)CC[C@@H]1[C@H]2Cc3cccc(OCC(=O)O[C@H](C)CC)c3C[C@H]2C[C@H]1O` [Compound 60]: the half-life at 0.5 uM in data set [1] is under 15 min; in data set [2] it was 31 to 60 min; in data set [4], 31 to 60 min.

Turning to `CCCCC[C@H](O)CC[C@@H]1[C@H]2Cc3cccc(OCC(=O)O[C@@H](C)CC)c3C[C@H]2C[C@H]1O` [Compound 61], the half-life at 0.5 uM is under 15 min in data set [1], 15 to 30 min in data set [2] and 31 to 60 min in data set [4].

As to `CCCCC[C@H](O)CC[C@@H]1[C@H]2Cc3cccc(OCC(=O)O[C@H](C)C(C)C)c3C[C@H]2C[C@H]1O` [Compound 62], the half-life at 0.5 uM in data set [1] is under 15 min; in data set [2], 31 to 60 min; in data set [4], over 60 min.

Take `CCCCC[C@H](O)CC[C@@H]1[C@H]2Cc3cccc(OCC(=O)O[C@@H](C)C(C)C)c3C[C@H]2C[C@H]1O` [Compound 63]: the results for the half-life at 0.5 uM in data set [1], in data set [2] and in data set [4] were under 15 min, 31 to 60 min and 31 to 60 min, respectively.

Turning to `CCCCCCCCOC(=O)COc1cccc2c1C[C@H]1C[C@@H](O)[C@H](CC[C@@H](O)CCCCC)[C@H]1C2` [Compound 64], the half-life at 0.5 uM in data set [1] is under 15 min; in data set [2], over 60 min; in data set [4], over 60 min.

On to `CCCCC[C@H](O)CC[C@@H]1[C@H]2Cc3cccc(OCC(=O)O)c3C[C@H]2C[C@H]1O` [treprostinil], for which the absolute oral bioavailability entry in data set [5] (oral) was “less than 10%”. Moreover, the systemic half life result in data set [5] (due to significant metabolism) is on record as “very short”.

(Values after US20230331691A1, “TREPROSTINIL DERIVATIVE COMPOUNDS AND METHODS OF USING SAME” (CORSAIR PHARMA, INC., priority 2013, published 2023).)
